# Measured values as given in patent US10842152B2, “Isothiazolo-based bicycles, processes for their preparation and their use as herbicides and/or plant growth regulators” (Bayer CropScience Aktiengesellschaft, priority 2017, dated 2020).
# Key:
# Amaranthus retroflexus [1] = experiment: Herbicidal effect pre-emergence; assay type: in vivo; conditions: 320 g/ha, visual grading after ca. 3 weeks vs untreated controls
# How it was run: (§1)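 Pre-emergence: WP or EC formulations applied as aqueous suspension/emulsion with 0.5% additive at 600 l water/ha onto covering soil of freshly sown pots in sandy loam. Greenhouse under optimum conditions; visual damage scored after ca. 3 weeks versus untreated controls (100% = plants died, 0% = as control).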
# Setaria viridis [2] = experiment: Herbicidal effect pre-emergence; assay type: in vivo; conditions: 320 g/ha, visual grading after ca. 3 weeks vs untreated controls
# How it was run: as §1
# Viola tricolor [3] = experiment: Herbicidal effect pre-emergence; assay type: in vivo; conditions: 320 g/ha, visual grading after ca. 3 weeks vs untreated controls
# How it was run: as §1
# Amaranthus retroflexus [4] = experiment: Herbicidal effect post-emergence; assay type: in vivo; conditions: 320 g/ha
# How it was run: (§2)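 Greenhouse plants in sandy loam sprayed post-emergence at single-leaf stage (2-3 weeks after sowing) with WP or EC formulations plus 0.5% additive at 600 l water/ha. Damage scored visually after ca. 3 weeks versus untreated controls, 0% (as control) to 100% (dead).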
# Pharbitis purpurea = experiment: Herbicidal effect post-emergence; assay type: in vivo; conditions: 320 g/ha, visual grading after ca. 3 weeks (Table 7)
# How it was run: as §2
# [5] = system: Polygonum convolvulus (=Fallopia convolvulus); experiment: Herbicidal effect post-emergence; assay type: in vivo; conditions: 320 g/ha, visual grading after ca. 3 weeks (Table 7)
# How it was run: as §2
# Setaria viridis [6] = experiment: Herbicidal effect post-emergence; assay type: in vivo; conditions: 320 g/ha
# How it was run: as §2
# Stellaria media [7] = experiment: Herbicidal effect post-emergence; assay type: in vivo; conditions: 320 g/ha, visual grading after ca. 3 weeks (Table 7)
# How it was run: as §2
# Viola tricolor [8] = experiment: Herbicidal effect post-emergence; assay type: in vivo; conditions: 320 g/ha
# How it was run: as §2
# MATIN [9] = experiment: Herbicidal effect post-emergence; assay type: in vivo, Matricaria inodora; conditions: 320 g/ha, visual grading after ca. 3 weeks (Table 7)
# Text: Seeds of mono- and dicotyledonous weed plants and crop plants are sown in wood-fiber pots in sandy loam, covered with soil and grown in a greenhouse under controlled growth conditions. 2 to 3 weeks after sowing, the test plants are sprayed in the single-leaf stage. The compounds according to the invention, formulated in form of wettable powders (WP) or as emulsifiable concentrates (EC), are then sprayed onto the green plant parts as aqueous suspension or emulsion, with the addition of 0.5% of an additive, at an application rate of 600 l of water/ha (converted). After the test plants had been in the greenhouse for ca. 3 weeks under optimum growth conditions, the effect of the preparations is assessed visually in comparison with untreated controls (herbicidal effect in percent (%): 100% effect=plants have died off, 0% effect=as control plants).
# Nilaparvata lugens = Nilaparvata lugens spray test; assay type: in vivo; conditions: application rate 500 g/ha, after 4 days, rice plants
# Procedure: (§3) Solvent: 78.0 parts by weight of acetone • • 1.5 parts by weight of dimethylformamide
# (§4) Emulsifier: alkylarylpolyglycol ether
# (§5) To produce a suitable preparation of active compound, 1 part by weight of active compound is mixed with the stated amount of solvents and is diluted with water, containing an emulsifier concentration of 1000 ppm, to the desired concentration. Further test concentrations are prepared by dilution with emulsifier containing water.
# Rice plants (Oryza sativa) are sprayed with a preparation of the active ingredient of the desired concentration and the plants are infested with the brown planthopper (Nilaparvata lugens).
# After 4 days mortality in % is determined. 100% means all planthoppers have been killed and 0% means none of the planthoppers have been killed.
# Alopecurus myosuroides = experiment: Herbicidal effect pre-emergence; assay type: in vivo; conditions: 320 g/ha, visual grading after ca. 3 weeks vs untreated controls
# How it was run: as §1
# Stellaria media [10] = experiment: Herbicidal effect pre-emergence; assay type: in vivo; conditions: 320 g/ha, visual grading after ca. 3 weeks vs untreated controls
# How it was run: as §1
# MATIN [11] = experiment: Herbicidal effect pre-emergence; assay type: in vivo, Matricaria inodora; conditions: 320 g/ha, visual grading after ca. 3 weeks vs untreated controls
# Text: Seeds of mono- and dicotyledonous weed plants and crop plants are sown in wood-fiber pots in sandy loam and covered with soil. The compounds according to the invention, formulated in the form of wettable powders (WP) or as emulsifiable concentrates (EC), are then applied to the surface of the covering soil as aqueous suspension or emulsion, with the addition of 0.5% of an additive, at an application rate of 600 l of water/ha (converted).
# Following treatment, the pots are placed in a greenhouse and kept under optimum growth conditions for the test plants. The visual grading of the damage to the test plants is carried out after ca. 3 weeks in comparison to untreated controls (herbicidal effect in percent (%): 100% effect=plants have died off, 0% effect=as control plants).
# Nezara viridula = Nezara viridula spray test; assay type: in vivo; conditions: application rate 500 g/ha, after 4 days, barley plants
# Procedure: as §3, §4
# as §5, with “solvent,” for “solvents”, “and the concentrate” for “and”
# Barley plants (Hordeum vulgare) infested with larvae of the southern green stink bug (Nezara viridula) are sprayed with a test solution containing the desired concentration of the active ingredient.
# After 4 days mortality in % is determined. 100% means all the stink bugs have been killed; 0% means none of the stink bugs have been killed.
# Meloidogyne incognita = Meloidogyne incognita test; assay type: in vivo; conditions: application rate 20 ppm, after 14 days, salad seedlings
# Procedure: Solvent: 125.0 parts by weight of acetone
# To produce a suitable preparation of active compound, 1 part by weight of active compound is mixed with the stated amount of solvent, and the concentrate is diluted with water to the desired concentration.
# Vessels are filled with sand, a solution of the active ingredient, a suspension containing eggs and larvae of the southern root-knot nematode (Meloidogyne incognita) and salad seeds. The salad seeds germinate and the seedlings grow. Galls develop in the roots.
# After 14 days the nematicidal activity is determined on the basis of the percentage of gall formation. 100% means no galls were found and 0% means the number of galls found on the roots of the treated plants was equal to that in untreated control plants.
# Abutilon theophrasti = experiment: Herbicidal effect post-emergence; assay type: in vivo; conditions: 320 g/ha, visual grading after ca. 3 weeks (Table 8)
# How it was run: as §2
# Phaedon cochleariae = Phaedon cochleariae spray test; assay type: in vivo; conditions: application rate 500 g/ha, after 7 days, Chinese cabbage leaf disks
# Procedure: as §3, §4, §5
# Chinese cabbage (Brassica pekinensis) leaf disks are sprayed with a preparation of the active ingredient of the desired concentration. Once dry, the leaf disks are infested with mustard beetle larvae (Phaedon cochleariae).
# After 7 days mortality in % is determined. 100% means all beetle larvae have been killed and 0% means none of the beetle larvae have been killed.
# [12] = visual grading after ca. 3 weeks (Table 7)
# [13] = visual grading after ca. 3 weeks (Table 9)
# [14] = visual grading after ca. 3 weeks (Table 8)
SMILES,herbicidal effect AMARE (Amaranthus retroflexus [1]) [%],herbicidal effect SETVI (Setaria viridis [2]) [%],herbicidal effect VIOTR (Viola tricolor [3]) [%],herbicidal effect ALOMY (Alopecurus myosuroides) [%],herbicidal effect STEME (Stellaria media [10]) [%],herbicidal effect MATIN (MATIN [11]) [%],herbicidal effect AMARE (Amaranthus retroflexus [4]; [13]) [%],herbicidal effect SETVI (Setaria viridis [6]; [13]) [%],herbicidal effect VIOTR (Viola tricolor [8]; [13]) [%],mortality (Nezara viridula) [%],nematicidal activity (gall formation) (Meloidogyne incognita) [%],other results
Nc1nsc2c1CC(CO)N(CC1CCCCC1)C2=O (stereo not drawn) [Example I-007],100,80,90,–,–,–,–,–,–,–,–,herbicidal effect AMARE (Amaranthus retroflexus [4]; [12]): 100%; herbicidal effect PHBPU (Pharbitis purpurea): 100%; herbicidal effect POLCO [5]: 100%; herbicidal effect SETVI (Setaria viridis [6]; [12]): 100%; herbicidal effect STEME (Stellaria media [7]): 100%; herbicidal effect VIOTR (Viola tricolor [8]; [12]): 100%; herbicidal effect MATIN (MATIN [9]): 100%; mortality (Nilaparvata lugens): 100%
CCC(=O)Nc1nsc2c(=O)n(CC3CCCCC3)cc(Br)c12 [Example I-078],100,100,100,100,100,100,100,100,80,90,–,–
CC(C)Cc1cc2c(N)nsc2c(=O)n1CC1CCCCC1 [Example I-050],–,–,–,–,–,–,–,–,–,–,90,–
CCC(=O)N(C(=O)CC)c1nsc2c(=O)n(CC3CCCCC3)c(CO)cc12 [Example I-049],100,100,90,80,100,80,90,100,100,–,90,–
Nc1nsc2c(=O)n(CC3CCCCC3)c(COC3CCCCO3)cc12 (stereo not drawn) [Example I-038],–,–,–,–,–,–,–,–,–,–,90,–
CC(=O)Nc1nsc2c(=O)n(CC3CCCCC3)cc(Br)c12 [Example I-102],100,100,100,–,–,–,100,100,100,90,–,–
CC(=O)Nc1nsc2c(=O)n(CC3CCCCC3)cc(Cl)c12 [Example I-084],100,100,100,100,100,100,–,–,–,–,–,herbicidal effect ABUTH (Abutilon theophrasti): 100%; herbicidal effect AMARE (Amaranthus retroflexus [4]; [14]): 100%; herbicidal effect SETVI (Setaria viridis [6]; [14]): 100%; herbicidal effect VIOTR (Viola tricolor [8]; [14]): 100%; mortality (Phaedon cochleariae): 83%
CCC(=O)N(C(=O)CC)c1nsc2c(=O)n(CC3CCCCC3)c(COC3CCCCO3)cc12 (stereo not drawn) [Example I-042],–,–,–,–,–,–,100,90,100,–,90,–
COCC(=O)Nc1nsc2c(=O)n(CC3CCCCC3)cc(Br)c12 [Example I-087],100,100,100,100,100,90,100,100,100,90,–,mortality (Nilaparvata lugens): 100%
